Data published in patent publication US20070293576A1, “Pharmaceutical Methods, Dosing Regimes And Dosage Forms For The Treatment Of Alzheimer's Disease” (Myriad Genetics, Incorporated, priority 2003, published 2007).
Read-outs that look alike come from different tables or passages of the source.

Key:
[1] = biological target: cytochrome P450 (CYP) 2C9 (Homo sapiens, UniProt P11712); conditions: cited from earlier work
[2] = tested on: patients with Alzheimer's disease; conditions: clinical trials; rofecoxib at 25 mg daily; cited from earlier work
Aβ42 [3] = conditions: transgenic mouse model; cited from earlier work
[4] = Phase I pharmacokinetic study of R-flurbiprofen in plasma, one compartment model; type: in vivo, human; conditions: oral capsules, plasma Study Day 21, mean value one compartment model
Description: The study is conducted as a double-blind, placebo-controlled, sequential, ascending dose level, multiple dose study, including men and women. Sixteen subjects are assigned to each of three sequential cohorts: 200 mg BID, 400 mg BID, and 800 mg BID of R-flurbiprofen, each with matched placebo BID. Each cohort contains a 3:1 ratio of assignment to active drug (n=12) versus placebo (n=4), resulting in 4 treatment groups of 12 subjects each after combining the 3 placebo groups. The study is balanced by site and stratified by gender. Subjects receive either R-flurbiprofen at the specified dose or a matched placebo orally for 21 days. Blood and urine samples are collected for laboratory safety data at Study Day 1, Study Day 21, and End of Study (30-Day Follow Up) visit. Blood and CSF are collected for pharmacokinetic and biomarker measures at Study Day 1 and after 21 days of treatment with the study drug.
Subjects are instructed to take 1 capsule from Bottle A and 1 capsule from Bottle B 2 times per day (BID) for 20 days; Bottles A and B may contain R-flurbiprofen or placebo. The intraday dosing interval is approximately 12 hours, and the study drug is taken at approximately the same time each day. After 20 days (i.e., on Study Day 21), study participants undergo a pharmacokinetic study, as described below. Daily doses for the 4 groups of the study are: • 400 mg R-flurbiprofen (given as one 200 mg capsule and 1 placebo capsule BID) • 800 mg R-flurbiprofen (given as one 400 mg capsule and 1 placebo capsule BID) • 1600 mg R-flurbiprofen (given as two 400 mg capsules BID)
Blood and urine samples are collected on Study Day 21 from fasted participants for clinical chemistries, hematology, coagulation parameters, and urinalysis. Blood samples are collected on Study Day 21 at 0.5, 1, 2, 4, and 6 hours, and, if possible, 8 and 24 hours, after administration of the final dose of study drug. The total amount of blood collected for the pharmacokinetic analyses is approximately 64 mL. All blood samples for PK/PD analysis are analyzed for both R-flurbiprofen and S-flurbiprofen, and the extent of bioinversion of R-flurbiprofen to S-flurbiprofen is assessed.
The plasma concentration time profile of R-flurbiprofen is analyzed using nonlinear modeling, and preliminary estimates of PK parameters are obtained. Estimates include individual and mean half-life, clearance, AUC, Cmax, Tmax, and average steady-state concentration. Cerebrospinal fluid levels of R-flurbiprofen are summarized. If plasma concentrations over time are similar to those found in other patient populations, Bayesian estimation is used to estimate population PK parameters, allowing the PK parameters observed in this population to be evaluated in the context of data observed in additional clinical studies. Estimates include the mean and individual PK parameters as well as the magnitude of intersubject variability.
A clinical trial was conducted as described in Example 5, above. Pharmacokinetic parameters were determined using WinNonlin® Version 4.0 (Pharsight, Mountain View, Calif.). A one compartment model with first order elimination and uniform weighting was used with WinNonlin estimated parameter boundaries for absorption rate (K01), elimination rate (K10) and volume (V_F). Individual and mean value parameters derived include K10 half-life, Cmax (maximum plasma concentration), Tmax (time of maximum plasma concentration), AUC (area under the plasma time and concentration curve), and Cl_F (clearance). The model calculates the concentration at time T as follows: C(T)=D*K01/V/(K01−K10)*(EXP(−K10*T)−EXP(−K01*T)) (1), where C(T) is concentration at time T; D=dose; V is volume; V_F is volume of distribution over systemic availability; K01 is the absorption rate constant; K10 is elimination rate constant; CL_F is clearance over systemic availability; and T is time. […]

Aβ42 [5] = conditions: CHO cells; cited from earlier work
COX = conditions: cited from earlier work
[6] = tested on: patients having mild cognitive impairment; conditions: cited from earlier work
[7] = 200 mg BID group, modeled as single 200 mg dose
[8] = 400 mg BID group, modeled as single 400 mg dose
[9] = 800 mg BID group, modeled as single 800 mg dose

Sequence of cytochrome P450 (CYP) 2C9 (P11712 whole entry): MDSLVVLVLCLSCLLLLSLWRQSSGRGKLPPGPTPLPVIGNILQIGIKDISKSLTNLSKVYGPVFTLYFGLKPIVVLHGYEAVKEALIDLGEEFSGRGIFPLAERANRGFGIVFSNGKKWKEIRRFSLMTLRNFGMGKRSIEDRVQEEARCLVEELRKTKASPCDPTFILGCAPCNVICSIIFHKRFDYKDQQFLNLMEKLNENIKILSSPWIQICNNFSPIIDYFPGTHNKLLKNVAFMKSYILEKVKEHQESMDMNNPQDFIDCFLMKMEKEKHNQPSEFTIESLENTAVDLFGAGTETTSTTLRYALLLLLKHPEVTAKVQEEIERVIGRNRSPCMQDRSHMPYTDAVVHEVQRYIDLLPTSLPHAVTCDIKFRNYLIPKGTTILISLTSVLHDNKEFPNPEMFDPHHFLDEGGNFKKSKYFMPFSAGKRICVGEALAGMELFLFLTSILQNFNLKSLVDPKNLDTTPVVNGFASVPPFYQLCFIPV

Which “inhibition of the metabolism of drugs that are substrates of CYP2C9” value [1] does the source give for `CC(C(=O)O)c1ccc(-c2ccccc2)c(F)c1` (racemic) [flurbiprofen, (R,S)-(2-fluoro-biphenylyl)propionic acid, reference compound] here?
The value was “inhibit the metabolism”.

For `COc1ccc2cc([C@H](C)C(=O)O)ccc2c1` [Naproxen], which “efficacy for treating AD” value [2] is on record?
The value was “failed to show efficacy”.

With `C[C@@H](C(=O)O)c1ccc(-c2ccccc2)c(F)c1` [R-flurbiprofen] as the compound, how does the “effect on Aβ42” value (Aβ42 [3]) read?
Its value is “lower Aβ42”.

And the “inhibition of the metabolism of drugs that are substrates of CYP2C9” value [1]?
The value was “inhibit the metabolism”.

What about the AUC [4, 7] of the same compound?
Its AUC is 246 µg·h/mL.

What about the CL_F [4, 7] of the same compound?
Its CL_F is 812 mL/h.

What about the K10_HL [4, 7] of the same compound?
Its K10_HL is 6.56 h.

And the Tmax [4, 7]?
The Tmax was 2.28 h.

What about the AUC [4, 8] of the same compound?
The AUC was 577 µg·h/mL.

And the CL_F [4, 8]?
The CL_F was 693 mL/h.

And the K10_HL [4, 8]?
Its K10_HL is 8.04 h.

What about the Tmax [4, 8] of the same compound?
The Tmax was 1.58 h.

And the AUC [4, 9]?
The AUC was 487 µg·h/mL.

What about the CL_F [4, 9] of the same compound?
Its CL_F is 1642 mL/h.

And the K10_HL [4, 9]?
Its K10_HL is 5.90 h.

What about the Tmax [4, 9] of the same compound?
The Tmax was 0.86 h.

What about the “effect on Aβ42” value (Aβ42 [5]) of the same compound?
Its value is “lower Aβ42”.

And the “inhibition of COX activity” value (COX)?
Its value is “negligibly inhibits”.

Which “efficacy for treating AD” value [2] does the source give for `CS(=O)(=O)c1ccc(C2=C(c3ccccc3)C(=O)OC2)cc1` [rofecoxib] here?
Its value is “failed to show efficacy”.

What about the “prevention of the development of Alzheimer's disease” value ([6]; large prevention clinical trial) of the same compound?
Its value is “failed to prevent the development of Alzheimer's disease”.

What about the “patients who developed AD” value ([6]; large prevention trial, 4.5% for placebo) of the same compound?
The value was 6.4%.
